These results are taken from the NIST ThermoML archive (doi:10.1021/je020196d).

Data set [1] in a line: activity coefficient (dimensionless); of the first substance listed, at infinite dilution; xn = mol fraction of the nth substance listed. Particulars: Liquid, x1 = 0.
A short description of data set [2]: refractive index (Na D-line) (dimensionless). The settings on record: 293.15 K; 101.33 kPa; Liquid; Standard Abbe refractometry.
The conditions of data set [3]: 293.15 K; 101.33 kPa; Liquid.

± gives the expanded uncertainty stated by the source.

As for `c1ccccc1` [benzene] + OCCOCCOCCO, the activity coefficient in data set [1] (323.15 K, Chromatography) came to 4.62 ± 0.21; in data set [1] (333.15 K, Chromatography) it was 4.38 ± 0.2; in data set [1] (343.15 K, Chromatography), 4.26 ± 0.19; in data set [1] (353.15 K, Chromatography), 4.1 ± 0.19; in data set [1] (363.15 K, Chromatography), 3.97 ± 0.18; in data set [1] (373.1 K, Chromatography) it was 3.92 ± 0.18. Moreover, the activity coefficient was determined as 3.82 ± 0.17 in data set [1] (383.15 K, Chromatography) and 3.75 ± 0.17 in data set [1] (393.15 K, Chromatography).

Take `CCc1ccccc1` [ethylbenzene]: in data set [2], the refractive index (as a rule, a measure of how strongly the sample bends light) is listed as 1.4955 ± 0.0007. In addition, the mass density – broadly, the mass of a sample divided by its volume – in data set [3] is reported as 867.4 ± 5 kg/m3.

Regarding `Cc1ccccc1` [toluene] + OCCOCCOCCOCCO, the activity coefficient in data set [1] (333.15 K, Chromatography) is 4.5 ± 0.21; in data set [1] (353.15 K, Chromatography), 4.02 ± 0.18; in data set [1] (363.15 K, Chromatography) it was 3.85 ± 0.18; in data set [1] (373.1 K, Chromatography), 3.62 ± 0.16; in data set [1] (383.15 K, Chromatography), 3.46 ± 0.16; in data set [1] (393.15 K, Chromatography), 3.37 ± 0.15. Besides, the activity coefficient in data set [1] (403.15 K, Chromatography) turned out to be 3.21 ± 0.15.

For the compound `c1ccccc1` [benzene] + OCCOCCOCCOCCO, the activity coefficient worked out at 2.99 ± 0.14 in data set [1] (333.15 K, Chromatography); 2.73 ± 0.12 in data set [1] (353.15 K, Chromatography); 2.65 ± 0.12 in data set [1] (363.15 K, Chromatography); 2.5 ± 0.11 in data set [1] (373.1 K, Chromatography); 2.41 ± 0.11 in data set [1] (383.15 K, Chromatography); 2.37 ± 0.11 in data set [1] (393.15 K, Chromatography). Besides, the activity coefficient in data set [1] (403.15 K, Chromatography) turned out to be 2.27 ± 0.1.

Take `CCc1ccccc1` [ethylbenzene] + OCCOCCOCCO: the activity coefficient in data set [1] (323.15 K, Chromatography) was found to be 10.9 ± 0.5; in data set [1] (333.15 K, Chromatography) it was 10.3 ± 0.47; in data set [1] (343.15 K, Chromatography), 9.73 ± 0.45; in data set [1] (353.15 K, Chromatography) it was 9.1 ± 0.42; in data set [1] (363.15 K, Chromatography) it was 8.72 ± 0.4; in data set [1] (373.1 K, Chromatography) it was 8.39 ± 0.38. Besides, the activity coefficient is 7.94 ± 0.36 in data set [1] (383.15 K, Chromatography) and 7.72 ± 0.35 in data set [1] (393.15 K, Chromatography).

For `CCCCCCCCCC` [decane] + OCCOCCOCCOCCO, the activity coefficient in data set [1] (333.15 K, Chromatography) is 123 ± 5.8; in data set [1] (353.15 K, Chromatography), 87.8 ± 4.1; in data set [1] (363.15 K, Chromatography), 75.1 ± 3.5; in data set [1] (373.1 K, Chromatography) it was 64.4 ± 3; in data set [1] (383.15 K, Chromatography), 55.2 ± 2.6; in data set [1] (393.15 K, Chromatography), 51.3 ± 2.4. Further, the activity coefficient in data set [1] (403.15 K, Chromatography) was found to be 42.9 ± 2.

Regarding `CCc1ccccc1` [ethylbenzene] + OCCOCCOCCOCCO, the activity coefficient was 6.39 ± 0.29 in data set [1] (333.15 K, Chromatography); 5.63 ± 0.26 in data set [1] (353.15 K, Chromatography); 5.31 ± 0.24 in data set [1] (363.15 K, Chromatography); 5 ± 0.23 in data set [1] (373.1 K, Chromatography); 4.73 ± 0.22 in data set [1] (383.15 K, Chromatography); 4.58 ± 0.21 in data set [1] (393.15 K, Chromatography). For the same compound, in data set [1] (403.15 K, Chromatography), the activity coefficient came out at 4.35 ± 0.2.

In the case of `Cc1ccccc1` [toluene], the refractive index in data set [2] amounted to 1.4962 ± 0.0007. The mass density in data set [3] was 866.7 ± 5 kg/m3.

For `CCCCCCC` [heptane] + OCCOCCOCCOCCO, the activity coefficient in data set [1] (333.15 K, Chromatography) came out at 50.2 ± 2.3; in data set [1] (353.15 K, Chromatography), 37.6 ± 1.7; in data set [1] (363.15 K, Chromatography), 32.1 ± 1.5; in data set [1] (373.1 K, Chromatography), 29.8 ± 1.4; in data set [1] (383.15 K, Chromatography), 26.1 ± 1.2; in data set [1] (393.15 K, Chromatography), 23.1 ± 1.1. In addition, the activity coefficient in data set [1] (403.15 K, Chromatography) turned out to be 20.8 ± 0.96.

On to `CCCCCCCCCC` [decane], for which, in data set [2], the refractive index was 1.4113 ± 0.0007. The mass density in data set [3] is reported as 730.2 ± 5 kg/m3.

With `CCCCCCCC` [octane] + OCCOCCOCCOCCO, the activity coefficient in data set [1] (333.15 K) amounted to 68.1 ± 6.4; in data set [1] (353.15 K), 49.5 ± 4.6; in data set [1] (363.15 K), 43.2 ± 4; in data set [1] (373.1 K), 37.5 ± 3.5; in data set [1] (383.15 K), 32.4 ± 3; in data set [1] (393.15 K), 31.4 ± 2.9. For the same compound, the activity coefficient in data set [1] (403.15 K) turned out to be 25.8 ± 2.4.

Take `CCCCCCCCC` [nonane] + OCCOCCOCCO: the activity coefficient worked out at 183 ± 8.6 in data set [1] (323.15 K, Chromatography); 156 ± 7.4 in data set [1] (333.15 K, Chromatography); 140 ± 6.6 in data set [1] (343.15 K, Chromatography); 119 ± 5.6 in data set [1] (353.15 K, Chromatography); 103 ± 4.8 in data set [1] (363.15 K, Chromatography); 93 ± 4.4 in data set [1] (373.1 K, Chromatography). Also, the activity coefficient is 81.4 ± 3.8 in data set [1] (383.15 K, Chromatography) and 73.9 ± 3.5 in data set [1] (393.15 K, Chromatography).

For the compound `Cc1ccccc1` [toluene] + OCCOCCOCCO, the activity coefficient is 7.11 ± 0.33 in data set [1] (323.15 K, Chromatography); 6.8 ± 0.31 in data set [1] (333.15 K, Chromatography); 6.51 ± 0.3 in data set [1] (343.15 K, Chromatography); 6.25 ± 0.29 in data set [1] (353.15 K, Chromatography); 5.99 ± 0.27 in data set [1] (363.15 K, Chromatography); 5.85 ± 0.27 in data set [1] (373.1 K, Chromatography). Further, the activity coefficient amounted to 5.56 ± 0.25 in data set [1] (383.15 K, Chromatography) and 5.51 ± 0.25 in data set [1] (393.15 K, Chromatography).

Turning to `CCCCCCC` [heptane], the refractive index in data set [2] is given as 1.3878 ± 0.0007. The mass density in data set [3] came to 683.5 ± 5 kg/m3.

As to `CCCCCCC` [heptane] + OCCOCCOCCO, the activity coefficient in data set [1] (323.15 K, Chromatography) amounted to 93.3 ± 4.4; in data set [1] (333.15 K, Chromatography) it was 82.7 ± 3.9; in data set [1] (343.15 K, Chromatography), 71.9 ± 3.4; in data set [1] (353.15 K, Chromatography) it was 62.7 ± 2.9; in data set [1] (363.15 K, Chromatography) it was 55.3 ± 2.6; in data set [1] (373.1 K, Chromatography), 50.2 ± 2.3. The activity coefficient in data set [1] (383.15 K, Chromatography) came out at 44.3 ± 2.1; in data set [1] (393.15 K, Chromatography), 40.6 ± 1.9.

With `CCCCCCCCC` [nonane], in data set [2], the refractive index came out at 1.4057 ± 0.0007. The mass density in data set [3] worked out at 717.8 ± 5 kg/m3.

As to `c1ccccc1` [benzene], the refractive index in data set [2] was determined as 1.5015 ± 0.0007. Moreover, in data set [3], the mass density came out at 878.3 ± 5 kg/m3.

With `CCCCCCCC` [octane] + OCCOCCOCCO, the activity coefficient in data set [1] (323.15 K, Chromatography) amounted to 129 ± 6.1; in data set [1] (333.15 K, Chromatography), 113 ± 5.3; in data set [1] (343.15 K, Chromatography), 99.5 ± 4.7; in data set [1] (353.15 K, Chromatography), 86.9 ± 4.1; in data set [1] (363.15 K, Chromatography), 75.8 ± 3.5; in data set [1] (373.1 K, Chromatography) it was 68.7 ± 3.2. The activity coefficient in data set [1] (383.15 K, Chromatography) is 60.5 ± 2.8; in data set [1] (393.15 K, Chromatography), 56.7 ± 2.6.

On to `CCCCCCCCC` [nonane] + OCCOCCOCCOCCO, for which the activity coefficient in data set [1] (333.15 K, Chromatography) was determined as 92.3 ± 4.3; in data set [1] (353.15 K, Chromatography) it was 64.7 ± 3; in data set [1] (363.15 K, Chromatography) it was 57.4 ± 2.7; in data set [1] (373.1 K, Chromatography), 49.3 ± 2.3; in data set [1] (383.15 K, Chromatography) it was 42.9 ± 2; in data set [1] (393.15 K, Chromatography), 39.7 ± 1.8. Also, in data set [1] (403.15 K, Chromatography), the activity coefficient was found to be 34.1 ± 1.6.

As for `CCCCCCCCCC` [decane] + OCCOCCOCCO, the activity coefficient in data set [1] (323.15 K, Chromatography) stood at 252 ± 12; in data set [1] (333.15 K, Chromatography), 219 ± 10; in data set [1] (343.15 K, Chromatography) it was 196 ± 9.3; in data set [1] (353.15 K, Chromatography), 162 ± 7.6; in data set [1] (363.15 K, Chromatography) it was 141 ± 6.6; in data set [1] (373.1 K, Chromatography), 125 ± 5.9. Further, the activity coefficient amounted to 107 ± 5 in data set [1] (383.15 K, Chromatography) and 95.6 ± 4.5 in data set [1] (393.15 K, Chromatography).

On to `OCCOCCOCCO` [triethylene glycol], for which, in data set [2], the refractive index is recorded as 1.4556 ± 0.0007. The mass density in data set [3] is given as 1127.8 ± 5 kg/m3.

`CCCCCCCC` [octane]: in data set [2], the refractive index amounted to 1.3975 ± 0.0007. In data set [3], the mass density is listed as 702.6 ± 5 kg/m3.
